Data reported in paper PMC12736535, “Generation and Characterization of Novel Contilisant+Tubastatin a Multitarget Small Molecules Against Glioblastoma” (Pharmaceutics, 2025).
Read-outs that look alike come from different tables or passages of the source.

Columns and labels:
[1] = system: U87 glioblastoma cells; assay: MTT cell viability, U87; format: cell-based; settings: Homo sapiens, 72 h, read-out: IC50 U87 (GBM)
Method: (§1) U87-MG, U251-MG and NCI-H1299 cells were purchased from ATCC, while MKN45 was obtained from the Leibniz Institute DSMZ-German Collection of Microorganisms and Cell Cultures and the RWP1 cell line was kindly provided by Dr. Francisco Real. Cells were cultured in DMEM or RPMI (Gibco, Waltham, MA, USA) supplemented with 10% FBS, 100 U/mL penicillin and streptomycin and 2 mM L-Glutamine. Patient-derived glioma neural stem cells (GNS166 and GNS179) were kindly provided by Dr. Steve Pollard. These cells were cultured in adhesion plates treated with laminin A in DMEM/F12 media (Gibco) supplemented with N2 (Gibco), B27 (Gibco), D-(+)-Glucose solution 45% (Sigma-Aldrich, Burlington, MA, USA), basic Fibroblast Growth Factor (Gibco) and epidermal growth factor (Sigma-Aldrich). Normal human astrocytes (NHAs) were purchased from ScienCell and cultured using an astrocyte medium kit (ScienCell, San Diego, CA, USA) supplemented with FBS and Astrocyte Growth Supplement (AGS). All cells were maintained at standard conditions of 37 °C, 95% humidity, 21% O2 and 5% CO2, and cultures were regularly tested for Mycoplasma.
(§2) Cells were seeded in 96-well plates at a density of 1.5 × 10^3 or 5 × 10^3 cells/well (conventional cell lines or GNS and NHAs, respectively) and incubated overnight. Next, cells were treated with increasing concentrations of the compounds, and after 72 h, they were incubated for 3.5 h with MTT. Then, absorbance at 570 nm was measured. GraphPad Prism software version 10.4.1 was used to calculate the IC50 values.

[2] = system: GNS166 cells; assay: RNA-seq; format: cell-based, human; settings: 5 µM
Excerpt: For transcriptomic analysis, total RNA was extracted and samples were sent to BGI Tech Solutions. […] Genes presenting a fold-change value ≥4 or ≤−4 and an FDR-adjusted p-value < 0.01 were defined as differentially expressed and used to perform downstream enrichment studies.

[3] = system: GNS166 patient-derived glioma stem cells; assay: MTT cell viability, GNS166; format: cell-based; settings: Homo sapiens, 72 h, read-out: IC50 GNS166 (GBM)
Method: as §1
(§3) Cells were seeded in 96-well plates at a density of 1.5 × 10^3 or 5 × 10^3 cells/well (conventional cell lines or GNS and NHAs, respectively) and incubated overnight. […] Then, absorbance at 570 nm was measured. […]

[4] = system: U87 subcutaneous tumors; assay: Subcutaneous U87 tumor growth and tumor immunohistochemistry; format: in vivo, athymic nude-Foxn1nu mice; settings: 50 mg/kg i.p.; for final tumor volume: 3 days per week for 4 weeks, control ~750; for decrease in the number of Ki67-positive cells (IHC): resected tumors
Method: For carcinogenesis studies, subcutaneous tumor growth experiments were performed via the injection of 5 × 10^5 cells into two bottom flanks of athymic nude-Foxn1^nu mice. Once tumors reached a size of 25–50 mm^3, mice were sorted into different treatment groups based on their gender and tumor size. An external caliper was used for tumor size measurement, and the tumor volume was estimated using the formula V = L·W^2·0.5 (where L is tumor length and W is tumor width). […] Sample size was calculated, taking into account that control groups could have an average size of 700 mm^3 and we wanted to detect a difference of […]. For the cytotoxic experiment, 8 controls and 8 treated animals were used, while for the efficacy experiment 12 control animals and 8 treated animals were used.
Subcutaneous tumors were extracted, fixed with 4% formaldehyde for 48 h and embedded in paraffin. Tumor sections were obtained and stainings for Ki67 (Ab16667, Abcam), acetyl H3 (9649, Cell Signaling) and acetylated α-tubulin (ab179484, Abcam) were performed. A ZEISS Axioscan 7 slide scanner was used to capture images of the stainings, and analyses were performed using Qupath.

[5] = target: T1, BChE (Homo sapiens, UniProt P06276); assay: BChE inhibition, Ellman's colorimetric method; format: biochemical; settings: for inhibition at 10 µM: read-out: ChE inhibition BChE %
T1 sequence (P06276 29-602, species assumed): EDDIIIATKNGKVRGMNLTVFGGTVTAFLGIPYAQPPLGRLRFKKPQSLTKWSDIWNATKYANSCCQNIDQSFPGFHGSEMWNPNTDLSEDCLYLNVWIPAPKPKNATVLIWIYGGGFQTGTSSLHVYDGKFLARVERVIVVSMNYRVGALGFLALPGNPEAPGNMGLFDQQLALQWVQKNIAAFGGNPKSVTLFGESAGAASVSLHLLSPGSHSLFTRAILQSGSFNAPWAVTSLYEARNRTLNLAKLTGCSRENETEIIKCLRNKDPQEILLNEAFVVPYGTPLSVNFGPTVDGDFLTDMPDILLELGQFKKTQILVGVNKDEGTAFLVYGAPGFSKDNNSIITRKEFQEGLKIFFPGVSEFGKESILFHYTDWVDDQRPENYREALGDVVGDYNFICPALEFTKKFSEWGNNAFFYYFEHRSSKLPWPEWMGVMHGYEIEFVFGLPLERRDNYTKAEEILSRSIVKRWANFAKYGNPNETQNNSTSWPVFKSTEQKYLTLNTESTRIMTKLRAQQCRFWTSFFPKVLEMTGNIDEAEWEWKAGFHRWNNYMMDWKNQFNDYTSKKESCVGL
Method: (§4) The inhibitory capacity of the compounds on ChEs was assessed using Ellman’s colorimetric method. Briefly, an inhibitor solution containing 10 µM of the MSMs and 0.3 mM DTNB was incubated for 20 min with the enzyme solution ([…]) at 37 °C. […] Inhibition percentages were calculated from these values. […] Further, enzyme kinetics were studied using different substrate and inhibitor concentrations. Results were represented in a Lineweaver–Burk plot using GraphPad Prism, and the constant of inhibition (Ki) was estimated from the point at which the line cuts the x-axis in the secondary plot.

[6] = system: NHA primary human astrocytes; assay: MTT cell viability, NHA; format: cell-based; settings: Astrocyte, 72 h, non-tumor cells
Method: as §1, §3

[7] = system: H1299 lung cancer cells; assay: MTT cell viability, H1299; format: cell-based, human
Method: as §1, §2

[8] = target: T2, recombinant hMAO-B (Homo sapiens, UniProt P27338); assay: MAO-B inhibition assay; format: biochemical; settings: for MAO inhibition MAO-B % / inhibition at 10 µM: 10 μM
T2 sequence (P27338 1-520): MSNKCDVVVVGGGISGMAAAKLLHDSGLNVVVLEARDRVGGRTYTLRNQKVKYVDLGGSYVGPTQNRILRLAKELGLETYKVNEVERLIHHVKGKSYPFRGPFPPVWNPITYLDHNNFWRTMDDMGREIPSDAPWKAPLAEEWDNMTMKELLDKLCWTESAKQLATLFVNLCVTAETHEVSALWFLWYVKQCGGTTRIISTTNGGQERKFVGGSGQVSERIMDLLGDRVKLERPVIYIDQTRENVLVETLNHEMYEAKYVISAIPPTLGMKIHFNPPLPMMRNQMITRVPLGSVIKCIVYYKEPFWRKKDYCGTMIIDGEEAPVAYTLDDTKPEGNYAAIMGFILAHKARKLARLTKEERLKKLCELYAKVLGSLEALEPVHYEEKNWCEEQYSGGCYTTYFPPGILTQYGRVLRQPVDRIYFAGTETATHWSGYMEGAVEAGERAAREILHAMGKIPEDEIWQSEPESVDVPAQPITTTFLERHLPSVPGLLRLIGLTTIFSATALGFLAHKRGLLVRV
Method: […] Next, horseradish peroxidase (200 U/mL), Ampliflu Red (20 mM) and tyramine hydrochloride (100 mM) (Sigma-Aldrich) were added, and absorbance was measured at 570 nm every 5 min for 30 min. The percentage of inhibition was calculated from the absorbance values.

[9] = system: HDAC6; assay: Western blot of acetylated α-tubulin (HDAC6 target); format: cell-based, human; settings: GNS166 and U87 cells
Method: Sodium dodecyl sulfate–polyacrylamide gel electrophoresis was performed. Primary antibodies against HDAC1 (Abcam, Cambridge, UK) and HDAC6 (Cell Signaling, Dancers, MA, USA) and their main targets, acetylated H3 (Cell Signaling) and acetylated α-tubulin (Abcam), were used; acetylated lysine (Cell Signaling) and β-actin (Sigma-Aldrich) were used as endogenous controls. Secondary antibodies conjugated to horseradish peroxidase were anti-rabbit or anti-mouse (Cell Signaling). Proteins were detected using the iBright imaging system and NOVEX ECL Chemi Substrate or SuperSignal West Femto Maximum Sensitivity Substrate (ThermoFisher, Waltham, MA, USA).

[10] = In vivo toxicity, body weight; set-up: species or system athymic nude-Foxn1nu mice; settings: intraperitoneal, 3 days per week
[11] = target: T1, BChE; assay: BChE inhibition, Ellman's colorimetric method; format: biochemical; settings: read-out: ChE inhibition BChE %
[12] = target: AChE (Homo sapiens, UniProt P22303); assay: AChE inhibition, Ellman's colorimetric method; format: biochemical; settings: read-out: ChE inhibition AChE %
Sequence of AChE (P22303 32-614): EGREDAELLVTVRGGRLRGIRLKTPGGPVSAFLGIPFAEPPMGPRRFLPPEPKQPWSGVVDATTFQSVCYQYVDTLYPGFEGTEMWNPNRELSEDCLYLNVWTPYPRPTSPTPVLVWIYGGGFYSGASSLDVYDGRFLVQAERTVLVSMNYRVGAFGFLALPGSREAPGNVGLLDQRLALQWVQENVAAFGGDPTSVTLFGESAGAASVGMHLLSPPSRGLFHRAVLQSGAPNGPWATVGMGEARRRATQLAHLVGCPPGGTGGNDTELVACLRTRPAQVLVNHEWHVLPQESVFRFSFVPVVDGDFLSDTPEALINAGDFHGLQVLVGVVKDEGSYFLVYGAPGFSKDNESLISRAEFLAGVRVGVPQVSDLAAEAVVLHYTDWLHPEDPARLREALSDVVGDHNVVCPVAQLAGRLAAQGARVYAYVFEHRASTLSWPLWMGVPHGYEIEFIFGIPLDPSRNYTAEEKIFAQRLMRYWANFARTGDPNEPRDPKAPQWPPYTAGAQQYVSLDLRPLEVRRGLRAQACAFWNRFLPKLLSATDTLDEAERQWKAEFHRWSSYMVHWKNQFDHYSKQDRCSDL
Method: as §4

[13] = system: GNS166, GNS179, U87 and U251 cells; assay: Immunofluorescence of Ki67, p-H3 and cleaved caspase-3; format: cell-based, human; settings: 1, 3 and 5 μM, 48 h; for proliferative markers (Ki67- and p-H3-positive cells): all glioma cell types
Method: For immunofluorescence assays, cells were seeded at a density of 2 × 10^4 cells/well in 8-well immunofluorescence chambers (LabTek Thermo, Waltham, MA, USA) and incubated overnight. Then, cells were treated for 48 h and fixed with 4% PFA. Primary antibodies against phospho-histone H3 (p-H3) (Abcam), cleaved caspase-3 (Casp3) (R&D Systems, Minneapolis, MN, USA) and Ki67 (Abcam) and secondary antibodies Alexa Fluor anti-mouse and anti-rabbit (Invitrogen, Carlsbad, CA, USA) were used. Nuclei were stained with DAPI (Sigma-Aldrich). Pictures were taken with an Axio Observer 7 epifluorescence microscope, and Qupath version 0.6.0 was used for quantifications. Percentages of Ki67-, p-H3- and Casp3-positive cells were calculated, taking into account the number of nuclei.

[14] = system: U251 glioma cells; assay: MTT cell viability, U251; format: cell-based; settings: Homo sapiens, U-251, 72 h, read-out: IC50 U251 (GBM)
Method: as §1, §3

[15] = target: T3, recombinant hMAO-A (Homo sapiens, UniProt P21397); assay: MAO-A inhibition assay; format: biochemical
T3 sequence (P21397 1-527): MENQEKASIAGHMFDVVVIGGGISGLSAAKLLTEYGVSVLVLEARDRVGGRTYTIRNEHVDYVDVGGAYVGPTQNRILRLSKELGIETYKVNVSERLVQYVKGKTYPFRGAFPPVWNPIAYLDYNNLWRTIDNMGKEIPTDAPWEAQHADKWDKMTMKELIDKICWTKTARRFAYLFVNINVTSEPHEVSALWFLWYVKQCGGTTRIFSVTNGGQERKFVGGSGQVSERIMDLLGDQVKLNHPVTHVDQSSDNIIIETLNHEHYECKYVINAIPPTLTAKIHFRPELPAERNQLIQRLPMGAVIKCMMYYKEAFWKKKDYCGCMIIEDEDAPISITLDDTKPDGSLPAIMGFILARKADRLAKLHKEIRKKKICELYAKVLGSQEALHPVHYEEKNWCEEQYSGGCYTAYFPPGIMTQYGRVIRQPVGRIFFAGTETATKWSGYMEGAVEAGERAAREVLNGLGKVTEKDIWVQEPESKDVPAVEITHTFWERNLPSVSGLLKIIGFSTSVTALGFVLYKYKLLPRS
Method: For MAO inhibition studies, the enzyme solution (0.5 U/mL recombinant hMAO-A or 1.5 U/mL recombinant hMAO-B) was incubated with an inhibitor solution containing 10 µM of the compounds for 30 min at 37 °C. Next, horseradish peroxidase (200 U/mL), Ampliflu Red (20 mM) and tyramine hydrochloride (100 mM) (Sigma-Aldrich) were added, and absorbance was measured at 570 nm every 5 min for 30 min. The percentage of inhibition was calculated from the absorbance values.

[16] = system: RWP1 pancreatic cancer cells; assay: MTT cell viability, RWP1; format: cell-based; settings: Homo sapiens, 72 h
Method: as §1, §3

[17] = system: MKN45 gastric cancer cells; assay: MTT cell viability, MKN45; format: cell-based; settings: Homo sapiens, MKN-45, 72 h
Method: as §1, §3

[18] = increasing concentrations of inhibitor
[19] = read-out: MAO inhibition MAO-A %

CCCNNC(=O)c1ccc(S(=O)(=O)n2ccc3cc(OC)ccc32)cc1 [FRB24]
IC50 [1]: 7.1 µM

C#CCN1CCN(CCCOc2ccc3c(ccn3S(=O)(=O)c3ccc(C(=O)NNCCC)cc3)c2)CC1 [FRB56]
FC of CDKN1A (RNA-seq) [2]: 3.12 fold
FC of MKI67 (RNA-seq) [2]: 0.06 fold
IC50 [3]: 13.7 µM
final tumor weight, lower compared to controls [4]: 61.4%
final tumor volume [4]: ~ 280 mm^3
decrease in the number of Ki67-positive cells (IHC) [4]: around 30%
inhibition at 10 µM ([5]; 10 μM): 15%
IC50 [6]: 26.6 µM
IC50 [1]: ~1.5 µM
IC50 ([7]; 72 h): < 5 µM
IC50 ([7]; Homo sapiens, NCI-H1299, 72 h): 4.9 µM
inhibition at 1 µM [8]: 83%
MAO inhibition MAO-B % [8]: 90%
inhibition at 10 µM [8]: 89%
levels of acetyl-α-tubulin [9]: increased
body weight vs control animals [10]: no statistically significant differences
inhibition at 1 µM ([11]; 1 μM): 10%
inhibition at 10 µM [12]: 13%
proliferative markers (Ki67- and p-H3-positive cells) [13]: clear reductions
IC50 [14]: 12 µM
IC50 [15, 18]: 1.68 µM

CCCN(CCC)NC(=O)c1ccc(S(=O)(=O)n2ccc3cc(OC)ccc32)cc1 [FRB21]
IC50 [1]: > 100 µM

CCCNNC(=O)c1ccc(S(=O)(=O)n2ccc3cc(OCCCN4CCCCC4)ccc32)cc1 [FRB44]
FC of CDKN1A (RNA-seq) [2]: 3.53 fold
FC of MKI67 (RNA-seq) [2]: 0.09 fold
IC50 [3]: 15 µM
final tumor weight, lower compared to controls [4]: 62.5%
final tumor volume [4]: ~ 325 mm^3
decrease in the number of Ki67-positive cells (IHC) [4]: around 30%
Type of inhibition [5]: Mixed
ChE inhibition BChE % ([5]; 10 μM): 70%
inhibition at 10 µM ([5]; 10 μM): 71%
Type of inhibition ([5]; BChE, Lineweaver-Burk plot): mixed inhibition
Ki ([5]; BChE, secondary plot of Lineweaver-Burk slopes): 1.36 µM
IC50 [5, 18]: 8.24 µM
IC50 [16]: 0.7 µM
IC50 [6]: 41.4 µM
IC50 [1]: ~1.5 µM
IC50 [17]: 4.1 µM
IC50 ([7]; Homo sapiens, NCI-H1299, 72 h): 11 µM
inhibition at 1 µM [8]: 18%
MAO inhibition MAO-B % [8]: 70%
inhibition at 10 µM [8]: 69%
IC50 [8, 18]: 3.16 µM
levels of acetyl-α-tubulin [9]: increased
body weight vs control animals [10]: no statistically significant differences
inhibition at 1 µM ([11]; 1 μM): 20%
inhibition at 10 µM [12]: 24%
proliferative markers (Ki67- and p-H3-positive cells) [13]: clear reductions
IC50 [14]: 3.1 µM

C#CCN(C)CCCOc1ccc(Cl)cc1Cl [Clorgiline, reference compound]
inhibition at 1 µM [15, 19]: 100%
inhibition at 10 µM [15, 19]: 98%

CN1CCc2c(c3ccccc3n2Cc2ccc(C(=O)NO)cc2)C1 [Tubastatin A]
levels of acetyl-α-tubulin [9]: higher levels of acetylated α-tubulin than the FRBs
cleaved caspase-3-positive cells [13]: slightly increased

CCN(C)C(=O)Oc1cccc([C@H](C)N(C)C)c1 [Rivastigmine, reference compound]
inhibition at 10 µM [5]: 100%
inhibition at 1 µM [11]: 100%
